*1 amine or outer side, *2 acyl side, *3 side chain or, on linkers, in order; H or OH if unused. Where a SMILES comes first, the peptide text is derived from it. Bridges are numbered along the chain shown (N, C = ends). [ ]: non-standard residue; d: D form. The star is where a group is joined. hPhe(3-Cl-4-CF3) = N[C@@H](CCc1ccc(C(F)(F)F)c(Cl)c1)C(=O)O; NPrPhe(4-CF3) = CCCN[C@@H](Cc1ccc(C(F)(F)F)cc1)C(=O)O; Pro(4-spirocPr) = O=C(O)[C@@H]1CC2(CC2)CN1; Morpholine(3S-CO) = O=C(O)[C@@H]1COCCN1; Pip(4,4-F2) = O=C(O)[C@@H]1CC(F)(F)CCN1; NMeGly(cPent) = CN[C@H](C(=O)O)C1CCCC1; X46 = CC1(C)CN([*:1])[C@@H]1C(=O)[*:2]; Hyp = O=C(O)[C@@H]1C[C@@H](O)CN1; NMeD = CN[C@@H](CC(=O)O)C(=O)O; NMeL = CN[C@@H](CC(C)C)C(=O)O; X14 = N#CCN(CC(=O)[*:2])[*:1]; Pip = O=C(O)[C@@H]1CCCCN1; Morpholide = C1CN(*)CCO1; NMeA = CN[C@@H](C)C(=O)O; Ac5c = NC1(C(=O)O)CCCC1; Aze = O=C(O)[C@@H]1CCN1; NcPrGly = O=C(O)CNC1CC1; NPrGly = CCCNCC(=O)O; Sar = CNCC(=O)O
Tests used:
[1] = molecular target: GDP-bound NRAS wild-type protein (Homo sapiens, UniProt P01111); experiment: Binding to NRAS by surface plasmon resonance (SPR), Single Cycle Kinetics; settings: KD ratio NRAS/KRAS, SPR
[2] = molecular target: GDP-bound HRAS wild-type protein (Homo sapiens, UniProt P01112); experiment: Binding to HRAS by surface plasmon resonance (SPR), Single Cycle Kinetics; settings: KD ratio HRAS/KRAS, SPR
Chain of GDP-bound HRAS wild-type protein (P01112 whole entry): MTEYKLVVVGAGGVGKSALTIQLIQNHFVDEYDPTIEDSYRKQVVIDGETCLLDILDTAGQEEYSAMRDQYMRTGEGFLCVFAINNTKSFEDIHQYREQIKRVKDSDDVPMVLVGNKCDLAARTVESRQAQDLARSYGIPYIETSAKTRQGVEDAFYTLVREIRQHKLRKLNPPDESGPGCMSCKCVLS

Chain of GDP-bound NRAS wild-type protein (P01111 whole entry): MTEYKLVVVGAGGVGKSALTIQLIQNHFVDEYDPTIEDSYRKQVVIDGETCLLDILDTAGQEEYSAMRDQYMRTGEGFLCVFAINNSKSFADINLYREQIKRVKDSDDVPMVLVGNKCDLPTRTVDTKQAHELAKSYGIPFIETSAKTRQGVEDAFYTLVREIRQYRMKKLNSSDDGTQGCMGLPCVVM

| Structure (SMILES) | NRAS/KRAS (ratio of KD for GDP-bound NRAS wild-type to KD for KRAS) [1] | HRAS/KRAS (ratio of KD for GDP-bound HRAS wild-type to KD for KRAS) [2] |
| --- | --- | --- |
| CCCN1C(=O)[C@@H]2CCN2C(=O)CN(C2CC2)C(=O)[C@H]([C@@H](C)CC)NC(=O)[C@H](CC(C)C)N(C)C(=O)C[C@@H](C(=O)N2CCOCC2)N(C)C(=O)[C@H](C2CCCC2)N(C)C(=O)C2(CCCC2)NC(=O)[C@@H]2CCCN2C(=O)[C@H](CCc2ccc(C(F)(F)F)c(Cl)c2)NC(=O)CN(C)C(=O)[C@@H]1Cc1ccc(C(F)(F)F)cc1 [PP0273] ([NMeL]I[NcPrGly][Aze][NPrPhe(4-CF3)][Sar][hPhe(3-Cl-4-CF3)]P[Ac5c][NMeGly(cPent)][NMeD]-Morpholide; lactam N-11) | C (A compound having a KD ratio of 0.1 or more and less than 3 is denoted as C) | B (a compound having 3 or more and less than 10 is denoted as B) |
| CCCN1CC(=O)N2CC[C@H]2C(=O)N(CCC)[C@@H](Cc2ccc(C(F)(F)F)cc2)C(=O)N(C)CC(=O)N[C@@H](CCc2ccc(C(F)(F)F)c(Cl)c2)C(=O)N2CCC[C@H]2C(=O)NC2(CCCC2)C(=O)N(C)[C@@H](C2CCCC2)C(=O)N(C)[C@H](C(=O)N2CCOCC2)CC(=O)N(C)[C@@H](CC(C)C)C(=O)N[C@@H]([C@@H](C)CC)C1=O [PP0274] ([NMeL]I[NPrGly][Aze][NPrPhe(4-CF3)][Sar][hPhe(3-Cl-4-CF3)]P[Ac5c][NMeGly(cPent)][NMeD]-Morpholide; lactam N-11) | C (A compound having a KD ratio of 0.1 or more and less than 3 is denoted as C) | B (a compound having 3 or more and less than 10 is denoted as B) |
| CCCN1C(=O)[C@@H]2CCN2C(=O)CN(CC#N)C(=O)[C@H]([C@@H](C)CC)NC(=O)[C@H](CC(C)C)N(C)C(=O)C[C@@H](C(=O)N2CCOCC2)N(C)C(=O)[C@H](C2CCCC2)N(C)C(=O)C2(CCCC2)NC(=O)[C@@H]2CCCN2C(=O)[C@H](CCc2ccc(C(F)(F)F)c(Cl)c2)NC(=O)CN(C)C(=O)[C@@H]1Cc1ccc(C(F)(F)F)cc1 [PP0275] ([NMeL]I[X14][Aze][NPrPhe(4-CF3)][Sar][hPhe(3-Cl-4-CF3)]P[Ac5c][NMeGly(cPent)][NMeD]-Morpholide; lactam N-11) | C (A compound having a KD ratio of 0.1 or more and less than 3 is denoted as C) | C (A compound having a KD ratio of 0.1 or more and less than 3 is denoted as C) |
| CCCN1C(=O)[C@@H]2CCN2C(=O)[C@H]2N(CC2(C)C)C(=O)[C@H]([C@@H](C)CC)NC(=O)[C@H](CC(C)C)N(C)C(=O)C[C@@H](C(=O)N2CCOCC2)N(C)C(=O)[C@H](C2CCCC2)N(C)C(=O)C2(CCCC2)NC(=O)[C@@H]2CCCN2C(=O)[C@H](CCc2ccc(C(F)(F)F)c(Cl)c2)NC(=O)CN(C)C(=O)[C@@H]1Cc1ccc(C(F)(F)F)cc1 [PP0277] ([NMeL]I[X46][Aze][NPrPhe(4-CF3)][Sar][hPhe(3-Cl-4-CF3)]P[Ac5c][NMeGly(cPent)][NMeD]-Morpholide; lactam N-11) | C (A compound having a KD ratio of 0.1 or more and less than 3 is denoted as C) | C (A compound having a KD ratio of 0.1 or more and less than 3 is denoted as C) |
| CCCN1C(=O)[C@@H]2CCN2C(=O)[C@H](C)N(C)C(=O)[C@H]([C@@H](C)CC)NC(=O)[C@H](CC(C)C)N(C)C(=O)C[C@@H](C(=O)N2CCOCC2)N(C)C(=O)[C@H](C2CCCC2)N(C)C(=O)C2(CCCC2)NC(=O)[C@@H]2CCN2C(=O)[C@H](CCc2ccc(C(F)(F)F)c(Cl)c2)NC(=O)CN(C)C(=O)[C@@H]1Cc1ccc(C(F)(F)F)cc1 [PP0281] ([NMeL]I[NMeA][Aze][NPrPhe(4-CF3)][Sar][hPhe(3-Cl-4-CF3)][Aze][Ac5c][NMeGly(cPent)][NMeD]-Morpholide; lactam N-11) | C (A compound having a KD ratio of 0.1 or more and less than 3 is denoted as C) | C (A compound having a KD ratio of 0.1 or more and less than 3 is denoted as C) |
| CCCN1C(=O)[C@@H]2CCN2C(=O)[C@H](C)N(C)C(=O)[C@H]([C@@H](C)CC)NC(=O)[C@H](CC(C)C)N(C)C(=O)C[C@@H](C(=O)N2CCOCC2)N(C)C(=O)[C@H](C2CCCC2)N(C)C(=O)C2(CCCC2)NC(=O)[C@@H]2CC3(CC3)CN2C(=O)[C@H](CCc2ccc(C(F)(F)F)c(Cl)c2)NC(=O)CN(C)C(=O)[C@@H]1Cc1ccc(C(F)(F)F)cc1 [PP0282] ([NMeL]I[NMeA][Aze][NPrPhe(4-CF3)][Sar][hPhe(3-Cl-4-CF3)][Pro(4-spirocPr)][Ac5c][NMeGly(cPent)][NMeD]-Morpholide; lactam N-11) | C (A compound having a KD ratio of 0.1 or more and less than 3 is denoted as C) | C (A compound having a KD ratio of 0.1 or more and less than 3 is denoted as C) |
| CCCN1C(=O)[C@@H]2CCN2C(=O)[C@H](C)N(C)C(=O)[C@H]([C@@H](C)CC)NC(=O)[C@H](CC(C)C)N(C)C(=O)C[C@@H](C(=O)N2CCOCC2)N(C)C(=O)[C@H](C2CCCC2)N(C)C(=O)C2(CCCC2)NC(=O)[C@@H]2C[C@@H](OC)CN2C(=O)[C@H](CCc2ccc(C(F)(F)F)c(Cl)c2)NC(=O)CN(C)C(=O)[C@@H]1Cc1ccc(C(F)(F)F)cc1 [PP0283] ([NMeL]I[NMeA][Aze][NPrPhe(4-CF3)][Sar][hPhe(3-Cl-4-CF3)][Hyp](Me)[Ac5c][NMeGly(cPent)][NMeD]-Morpholide; lactam N-11) | C (A compound having a KD ratio of 0.1 or more and less than 3 is denoted as C) | C (A compound having a KD ratio of 0.1 or more and less than 3 is denoted as C) |
| CCCN1C(=O)[C@@H]2CCN2C(=O)[C@H](C)N(C)C(=O)[C@H]([C@@H](C)CC)NC(=O)[C@H](CC(C)C)N(C)C(=O)C[C@@H](C(=O)N2CCOCC2)N(C)C(=O)[C@H](C2CCCC2)N(C)C(=O)C2(CCCC2)NC(=O)[C@@H]2CCCCN2C(=O)[C@H](CCc2ccc(C(F)(F)F)c(Cl)c2)NC(=O)CN(C)C(=O)[C@@H]1Cc1ccc(C(F)(F)F)cc1 [PP0284] ([NMeL]I[NMeA][Aze][NPrPhe(4-CF3)][Sar][hPhe(3-Cl-4-CF3)][Pip][Ac5c][NMeGly(cPent)][NMeD]-Morpholide; lactam N-11) | C (A compound having a KD ratio of 0.1 or more and less than 3 is denoted as C) | B (a compound having 3 or more and less than 10 is denoted as B) |
| CCCN1C(=O)[C@@H]2CCN2C(=O)[C@H](C)N(C)C(=O)[C@H]([C@@H](C)CC)NC(=O)[C@H](CC(C)C)N(C)C(=O)C[C@@H](C(=O)N2CCOCC2)N(C)C(=O)[C@H](C2CCCC2)N(C)C(=O)C2(CCCC2)NC(=O)[C@@H]2CC(F)(F)CCN2C(=O)[C@H](CCc2ccc(C(F)(F)F)c(Cl)c2)NC(=O)CN(C)C(=O)[C@@H]1Cc1ccc(C(F)(F)F)cc1 [PP0285] ([NMeL]I[NMeA][Aze][NPrPhe(4-CF3)][Sar][hPhe(3-Cl-4-CF3)][Pip(4,4-F2)][Ac5c][NMeGly(cPent)][NMeD]-Morpholide; lactam N-11) | C (A compound having a KD ratio of 0.1 or more and less than 3 is denoted as C) | B (a compound having 3 or more and less than 10 is denoted as B) |
| CCCN1C(=O)[C@@H]2CCN2C(=O)[C@H](C)N(C)C(=O)[C@H]([C@@H](C)CC)NC(=O)[C@H](CC(C)C)N(C)C(=O)C[C@@H](C(=O)N2CCOCC2)N(C)C(=O)[C@H](C2CCCC2)N(C)C(=O)C2(CCCC2)NC(=O)[C@@H]2COCCN2C(=O)[C@H](CCc2ccc(C(F)(F)F)c(Cl)c2)NC(=O)CN(C)C(=O)[C@@H]1Cc1ccc(C(F)(F)F)cc1 [PP0286] ([NMeL]I[NMeA][Aze][NPrPhe(4-CF3)][Sar][hPhe(3-Cl-4-CF3)][Morpholine(3S-CO)][Ac5c][NMeGly(cPent)][NMeD]-Morpholide; lactam N-11) | C (A compound having a KD ratio of 0.1 or more and less than 3 is denoted as C) | B (a compound having 3 or more and less than 10 is denoted as B) |
| CCCN1C(=O)[C@@H]2CCN2C(=O)[C@H](C)N(C)C(=O)[C@H]([C@@H](C)CC)NC(=O)[C@H](CC(C)C)N(C)C(=O)C[C@@H](C(=O)N2CCOCC2)N(C)C(=O)[C@H](C2CCCC2)N(C)C(=O)C2(CCCC2)NC(=O)CN(C)C(=O)[C@H](CCc2ccc(C(F)(F)F)c(Cl)c2)NC(=O)CN(C)C(=O)[C@@H]1Cc1ccc(C(F)(F)F)cc1 [PP0287] ([NMeL]I[NMeA][Aze][NPrPhe(4-CF3)][Sar][hPhe(3-Cl-4-CF3)][Sar][Ac5c][NMeGly(cPent)][NMeD]-Morpholide; lactam N-11) | C (A compound having a KD ratio of 0.1 or more and less than 3 is denoted as C) | C (A compound having a KD ratio of 0.1 or more and less than 3 is denoted as C) |
| CCCN1CC(=O)NC2(CCCC2)C(=O)N(C)[C@@H](C2CCCC2)C(=O)N(C)[C@H](C(=O)N2CCOCC2)CC(=O)N(C)[C@@H](CC(C)C)C(=O)N[C@@H]([C@@H](C)CC)C(=O)N(C)[C@@H](C)C(=O)N2CC[C@H]2C(=O)N(CCC)[C@@H](Cc2ccc(C(F)(F)F)cc2)C(=O)N(C)CC(=O)N[C@@H](CCc2ccc(C(F)(F)F)c(Cl)c2)C1=O [PP0288] ([NMeL]I[NMeA][Aze][NPrPhe(4-CF3)][Sar][hPhe(3-Cl-4-CF3)][NPrGly][Ac5c][NMeGly(cPent)][NMeD]-Morpholide; lactam N-11) | C (A compound having a KD ratio of 0.1 or more and less than 3 is denoted as C) | B (a compound having 3 or more and less than 10 is denoted as B) |

Source: patent publication US20250230193A1, “CYCLIC COMPOUND HAVING SELECTIVE KRAS INHIBITORY EFFECT ON HRAS AND NRAS” (CHUGAI SEIYAKU KABUSHIKI KAISHA, priority 2022, published 2025)
